# From patent US9028845B2, “Chimeric immunomodulatory compounds and methods of using the same-IV” (Dynavax Technologies Corporation, priority 2001, dated 2015)
# Strand notation (5' to 3'): a small letter for the sugar, then the base; units joined by * are phosphorothioate-linked, units joined directly phosphodiester-linked; [ ] holds rarer units or linkages, { } end groups; capitals alone tell only the bases. d = 2'-deoxy (DNA)
# System: human PBMCs
# Experiment: Human PBMC cytokine response assay (IFN-γ and IFN-α in cell-free medium by ELISA), with or without cPLGA
# Assay type: cell-based
# [1] = Donor 5, 20 μg/ml (mixtures: 20 μg/ml total), 24 h
# [2] = Donor 6, 20 μg/ml (mixtures: 20 μg/ml total), 24 h
substance,measurement,setting,value
"5′-TGACTGTGAACCTTAGAGATGA-3′ (SEQ ID NO: 3) (dT*dG*dA*dC*dT*dG*dT*dG*dA*dA*dC*dC*dT*dT*dA*dG*dA*dG*dA*dT*dG*dA) [Compound P-7, negative control, reference compound]",IFN-α (pg/ml) Donor 1,"Donor 1, 20 μg/ml, 24 h",0 pg/mL
same,IFN-γ (pg/ml) Donor 1,"Donor 1, 20 μg/ml, 24 h",410 pg/mL
same,IFN-α (pg/ml) Donor 2,"Donor 2, 20 μg/ml, 24 h",0 pg/mL
same,IFN-γ (pg/ml) Donor 2,"Donor 2, 20 μg/ml, 24 h",51 pg/mL
same,IFN-α (pg/ml) Donor 3,"Donor 3, 20 μg/ml, 24 h",0 pg/mL
same,IFN-γ (pg/ml) Donor 3,"Donor 3, 20 μg/ml, 24 h",3 pg/mL
same,IFN-α (pg/ml) Donor 4,"Donor 4, 20 μg/ml, 24 h",31 pg/mL
same,IFN-γ (pg/ml) Donor 4,"Donor 4, 20 μg/ml, 24 h",8 pg/mL
same,IFN-α (pg/ml) Donor 5,[1],20 pg/mL
same,IFN-γ (pg/ml) Donor 5,[1],7 pg/mL
same,IFN-α (pg/ml) Donor 6,[2],94 pg/mL
same,IFN-γ (pg/ml) Donor 6,[2],66 pg/mL
same,IFN-α (pg/ml) Donor 7,"Donor 7, 20 μg/ml, 24 h",0 pg/mL
same,IFN-γ (pg/ml) Donor 7,"Donor 7, 20 μg/ml, 24 h",2 pg/mL
same,IFN-α (pg/ml) Donor 8,"Donor 8, 20 μg/ml, 24 h",0 pg/mL
same,IFN-γ (pg/ml) Donor 8,"Donor 8, 20 μg/ml, 24 h",2 pg/mL
same,IFN-α Donor 9,"Donor 9, 20 μg/ml, 24 h",0
same,IFN-γ Donor 9,"Donor 9, 20 μg/ml, 24 h",5
same,IFN-α Donor 10,"Donor 10, 20 μg/ml, 24 h",3
same,IFN-γ Donor 10,"Donor 10, 20 μg/ml, 24 h",2
same,IFN-α Donor 11,"Donor 11, 20 μg/ml, 24 h",1
same,IFN-γ Donor 11,"Donor 11, 20 μg/ml, 24 h",3
same,IFN-α Donor 12,"Donor 12, 20 μg/ml, 24 h",5
same,IFN-γ Donor 12,"Donor 12, 20 μg/ml, 24 h",2
same,IFN-α,"Example 58, 0.8 ug/ml, donor 1",52 pg/mL
same,IFN-α,"Example 58, 0.8 ug/ml, donor 2",52 pg/mL
same,IFN-α,"Example 58, 0.8 ug/ml, donor 3",52 pg/mL
same,IFN-α,"Example 58, 0.8 ug/ml, donor 4",52 pg/mL
same,IFN-α mean,"Example 58, 0.8 ug/ml, mean of four individuals",52 pg/mL
same,IFN-α,"Example 58, 4 ug/ml, donor 1",52 pg/mL
same,IFN-α,"Example 58, 4 ug/ml, donor 2",52 pg/mL
same,IFN-α,"Example 58, 4 ug/ml, donor 3",52 pg/mL
same,IFN-α,"Example 58, 4 ug/ml, donor 4",52 pg/mL
same,IFN-α mean,"Example 58, 4 ug/ml, mean of four individuals",52 pg/mL
same,IFN-α,"Example 58, 20 ug/ml, donor 1",52 pg/mL
same,IFN-α,"Example 58, 20 ug/ml, donor 2",52 pg/mL
same,IFN-α,"Example 58, 20 ug/ml, donor 3",52 pg/mL
same,IFN-α,"Example 58, 20 ug/ml, donor 4",52 pg/mL
same,IFN-α mean,"Example 58, 20 ug/ml, mean of four individuals",52 pg/mL
same,IFN-α,"Example 59, 0.8 ug/ml, donor 48",102 pg/mL
same,IFN-α,"Example 59, 0.8 ug/ml, donor 177",102 pg/mL
same,IFN-α,"Example 59, 0.8 ug/ml, donor 272",102 pg/mL
same,IFN-α,"Example 59, 0.8 ug/ml, donor 273",102 pg/mL
same,IFN-α mean,"Example 59, 0.8 ug/ml, mean of four donors",102 pg/mL
same,IFN-α,"Example 59, 4 ug/ml, donor 48",102 pg/mL
same,IFN-α,"Example 59, 4 ug/ml, donor 177",102 pg/mL
same,IFN-α,"Example 59, 4 ug/ml, donor 272",102 pg/mL
same,IFN-α,"Example 59, 4 ug/ml, donor 273",102 pg/mL
same,IFN-α mean,"Example 59, 4 ug/ml, mean of four donors",102 pg/mL
same,IFN-α,"Example 59, 20 ug/ml, donor 48",102 pg/mL
same,IFN-α,"Example 59, 20 ug/ml, donor 177",102 pg/mL
same,IFN-α,"Example 59, 20 ug/ml, donor 272",102 pg/mL
same,IFN-α,"Example 59, 20 ug/ml, donor 273",102 pg/mL
same,IFN-α mean,"Example 59, 20 ug/ml, mean of four donors",102 pg/mL
same,IFN-α,"Table 9, donor 28089",0 pg/mL
same,IFN-γ,"Table 9, donor 28089",0 pg/mL
same,IFN-α,"Table 9, donor 28090",27 pg/mL
same,IFN-γ,"Table 9, donor 28090",4 pg/mL
same,IFN-α,"Table 9, donor 28098",19 pg/mL
same,IFN-γ,"Table 9, donor 28098",0 pg/mL
same,IFN-α,"Table 9, donor 28099",37 pg/mL
same,IFN-γ,"Table 9, donor 28099",2 pg/mL
same,IFN-α mean,"Table 9, mean of donors",21 pg/mL
same,IFN-γ mean,"Table 9, mean of donors",1 pg/mL
same,IFN-α,"Table 10, donor 28042",0 pg/mL
same,IFN-γ,"Table 10, donor 28042",66 pg/mL
same,IFN-α,"Table 10, donor 28043",11 pg/mL
same,IFN-γ,"Table 10, donor 28043",76 pg/mL
same,IFN-α,"Table 10, donor 28044",22 pg/mL
same,IFN-γ,"Table 10, donor 28044",26 pg/mL
same,IFN-α,"Table 10, donor 28045",20 pg/mL
same,IFN-γ,"Table 10, donor 28045",13 pg/mL
same,IFN-α mean,"Table 10, mean of donors",13 pg/mL
same,IFN-γ mean,"Table 10, mean of donors",45 pg/mL
same,IFN-α,"Table 11, donor 28042",0 pg/mL
same,IFN-γ,"Table 11, donor 28042",34 pg/mL
same,IFN-α,"Table 11, donor 28043",0 pg/mL
same,IFN-γ,"Table 11, donor 28043",19 pg/mL
same,IFN-α,"Table 11, donor 28044",4 pg/mL
same,IFN-γ,"Table 11, donor 28044",48 pg/mL
same,IFN-α,"Table 11, donor 28045",54 pg/mL
same,IFN-γ,"Table 11, donor 28045",35 pg/mL
same,IFN-α mean,"Table 11, mean of donors",15 pg/mL
